14 compounds from DBAASP can be followed below.

Converted amounts (≈) assume the structure as drawn.

Common to all, as to test: ≥ marks a high value that may be exact or a test limit, other limits are often not marked, values filed in µg/mL are converted to µM
For experiment [1], the system named is Staphylococcus aureus NCTC 8325.
Experiment [2] relates to Candida albicans ATCC 90028.
Experiment [3] concerns Escherichia coli ATCC 25922.
In experiment [4] the test system is Bacillus subtilis 168.
In experiment [5] the test system is Escherichia coli B.
The subject of experiment [6] is Pseudomonas aeruginosa.
Experiment [7] has as its system Staphylococcus aureus.
In experiment [8] the test system is Escherichia coli DH5alpha.
Experiment [9] concerns Escherichia coli UB1005.
In experiment [10] the test system is Salmonella enterica subsp. enterica serovar Typhimurium C77-31.
Experiment [11] concerns Staphylococcus aureus ATCC 25923.
Experiment [12] has as its system Staphylococcus aureus ATCC 29213.
Experiment [13] relates to Staphylococcus epidermidis ATCC 12228.
Experiment [14] deals with Escherichia coli JW0013.

Regarding `CC(C)C[C@H](NC(=O)[C@@H](NC(=O)[C@H](CCCCN)NC(=O)[C@H](CO)NC(=O)[C@H](CC(C)C)NC(=O)[C@H](CC(C)C)NC(=O)[C@@H](NC(=O)[C@H](C)NC(=O)[C@H](CC(C)C)NC(=O)[C@H](Cc1ccccc1)NC(=O)[C@@H]1CCCN1C(=O)[C@H](CC(C)C)NC(=O)[C@@H](N)Cc1ccccc1)[C@@H](C)O)C(C)C)C(N)=O` [FLPFLATLLSKVL], in experiment [1], the MIC is at least 100 µM.

For the compound `CC[C@H](C)[C@H](NC(=O)CNC(=O)[C@H](C)NC(=O)[C@@H](NC(=O)[C@@H](NC(=O)[C@@H]1CCCN1C(=O)[C@H](CC(C)C)NC(=O)[C@@H](N)Cc1ccccc1)[C@@H](C)CC)[C@@H](C)CC)C(=O)N[C@@H](C)C(=O)N[C@@H](C)C(=O)N[C@@H](CCCCN)C(=O)N[C@H](C(=O)N[C@@H](Cc1ccccc1)C(=O)N1CCC[C@H]1C(=O)N[C@@H](CCCCN)C(=O)N[C@H](C(=O)N[C@@H](Cc1ccccc1)C(=O)N[C@H]1CSSC[C@@H](C(=O)O)NC(=O)[C@H](CCCCN)NC(=O)[C@H](CCCCN)NC(=O)[C@H](CO)NC(=O)[C@H]([C@@H](C)CC)NC(=O)[C@H](C)NC1=O)[C@@H](C)CC)C(C)C` [FLPIIAGIAAKVFPKIFCAISKKC], the MIC in [2] came to 7 µM (≈ 18 µg/mL); in [3] it was 14 µM (≈ 36.1 µg/mL); in [1] it was 5 µM (≈ 12.9 µg/mL).

Turning to `CC[C@H](C)[C@H](NC(=O)[C@H](Cc1cnc[nH]1)NC(=O)[C@H](CCCCN)NC(=O)[C@H](CC(C)C)NC(=O)[C@H](CC(C)C)NC(=O)[C@H](CO)NC(=O)[C@H](CCSC)NC(=O)[C@H](Cc1ccccc1)NC(=O)[C@H](CCCCN)NC(=O)CN)C(=O)N[C@@H](CC(C)C)C(=O)N[C@@H](CCCCN)C(N)=O` [GKFMSLLKHILK], the MIC in [4] turned out to be 1.5 µM (≈ 2.12 µg/mL); in experiment [5], 5.8 µM (≈ 8.2 µg/mL); in [6], 30 µM (≈ 42.4 µg/mL); in [7], 43.3 µM (≈ 61.2 µg/mL).

As for `CC[C@H](C)[C@H](NC(=O)[C@H](Cc1cnc[nH]1)NC(=O)[C@H](CCCCN)NC(=O)[C@H](CC(C)C)NC(=O)[C@H](CC(C)C)NC(=O)[C@H](Cc1cnc[nH]1)NC(=O)[C@H](CCSC)NC(=O)[C@H](Cc1c[nH]c2ccccc12)NC(=O)[C@H](CCCCN)NC(=O)CN)C(=O)N[C@@H](CC(C)C)C(=O)N[C@@H](CCCCN)C(N)=O` [GKWMHLLKHILK], the MIC in experiment [4] turned out to be 1.1 µM (≈ 1.65 µg/mL); in [5], 2.2 µM (≈ 3.31 µg/mL); in experiment [6], 46.7 µM (≈ 70.2 µg/mL); in [7] it was 12.5 µM (≈ 18.8 µg/mL).

On to `CC[C@H](C)[C@@H]1NC(=O)[C@@H](NC(=O)[C@H](CCCCN)NC(=O)[C@H](CC(C)C)NC(=O)CNC(=O)[C@H](CCC(N)=O)NC(=O)[C@H](CC(C)C)NC(=O)[C@H](CC(C)C)NC(=O)[C@H](CCCCN)NC(=O)CNC(=O)[C@H](C)NC(=O)[C@H](CC(C)C)NC(=O)CNC(=O)[C@H](CCCCN)NC(=O)[C@H](CC(C)C)NC(=O)[C@@H](NC(=O)[C@H](CC(=O)O)NC(=O)[C@H](CC(C)C)NC(=O)[C@H](Cc2ccccc2)NC(=O)[C@H](CC(C)C)NC(=O)CN)[C@@H](C)O)CSSC[C@@H](C(=O)N[C@@H](CCCCN)C(=O)N2CCC[C@H]2C(=O)O)NC(=O)CNC(=O)[C@H](C)NC(=O)[C@H](CCCCN)NC1=O` [GLFLDTLKGLAGKLLQGLKCIKAGCKP], for which the MIC in experiment [2] is at least 46 µM; in experiment [3], 2 µM (≈ 5.57 µg/mL); in experiment [1] it was at least 40 µM.

For the compound `CC(C)C[C@H](NC(=O)[C@H](CCCCN)NC(=O)[C@H](CCCCN)NC(=O)[C@H](CC(C)C)NC(=O)[C@H](CC(C)C)NC(=O)[C@H](CCCCN)NC(=O)[C@H](CCCCN)NC(=O)[C@H](CC(C)C)NC(=O)[C@H](CC(C)C)NC(=O)[C@H](CCCCN)NC(=O)[C@H](CCCCN)NC(=O)[C@H](CC(C)C)NC(=O)[C@H](CC(C)C)NC(=O)CN)C(N)=O` [GLLKKLLKKLLKKL], the minimal inhibitory concentration (MIC) in [4] stood at 2 µM (≈ 3.27 µg/mL); in [8], 6 µM (≈ 9.81 µg/mL).

Consider `CC[C@H](C)[C@H](NC(=O)CNC(=O)[C@H](CCC(N)=O)NC(=O)[C@H](Cc1ccccc1)NC(=O)[C@@H](NC(=O)[C@H](CCCCN)NC(=O)[C@H](CCCCN)NC(=O)[C@H](CC(C)C)NC(=O)[C@H](C)NC(=O)[C@H](CC(N)=O)NC(=O)[C@H](CC(C)C)NC(=O)CN)C(C)C)C(=O)N[C@@H](Cc1cnc[nH]1)C(=O)N[C@@H](CCC(=O)O)C(=O)N[C@@H](C)C(=O)N[C@H](C(=O)N[C@@H](CCCCN)C(=O)N[C@@H](CC(C)C)C(=O)N[C@H](C(=O)N[C@@H](CC(N)=O)C(=O)N[C@@H](CCCCN)C(=O)N[C@@H](Cc1cnc[nH]1)C(=O)N[C@H](C(=O)N[C@@H](CCC(N)=O)C(=O)O)C(C)C)[C@@H](C)CC)[C@@H](C)CC` [GLNALKKVFQGIHEAIKLINKHVQ], for which the values for the minimal inhibitory concentration (MIC) in experiment [3] and in experiment [1] were 20 µM (≈ 54 µg/mL) and at least 80 µM, respectively.

Take `CC(C)C[C@H](NC(=O)[C@H](CCCN=C(N)N)NC(=O)[C@H](CCCCN)NC(=O)[C@H](CCCN=C(N)N)NC(=O)[C@@H](NC(=O)[C@H](CCCCN)NC(=O)[C@H](CCCCN)NC(=O)[C@H](CCCN=C(N)N)NC(=O)[C@H](CC(C)C)NC(=O)[C@H](CCCN=C(N)N)NC(=O)[C@@H](N)CCCN=C(N)N)[C@@H](C)O)C(=O)N[C@@H](CCCCN)C(N)=O` [RRLRKKTRKRLK]: the minimum inhibitory concentration (MIC) is over 128 µM in experiment [3]; at least 64 µM in [9]; at least 128 µM in [10]; over 128 µM in [11]; over 128 µM in experiment [12]; over 128 µM in experiment [13].

`CC[C@H](C)[C@H](NC(=O)[C@H](CCCN=C(N)N)NC(=O)[C@H](CCCN=C(N)N)NC(=O)[C@@H]1CCCN1C(=O)[C@@H]1CCCN1C(=O)[C@H](CCCN=C(N)N)NC(=O)[C@H](Cc1ccc(O)cc1)NC(=O)[C@H](CCCN=C(N)N)NC(=O)[C@@H]1CCCN1C(=O)[C@H](CC(C)C)NC(=O)[C@H](Cc1ccc(O)cc1)NC(=O)[C@@H]1CCCN1C(=O)[C@@H]1CCCN1C(=O)[C@H](CCCCN)NC(=O)[C@H](CC(=O)O)NC(=O)[C@@H](N)C(C)C)C(=O)N[C@@H](Cc1ccc(O)cc1)C(=O)N[C@@H](CC(N)=O)C(=O)N[C@@H](CCCN=C(N)N)C(N)=O` [VDKPPYLPRYRPPRRIYNR]: the MIC in experiment [14] is 1.95 µM (≈ 4.8 µg/mL).

In experiment [14], `CC[C@H](C)[C@H](NC(=O)[C@H](CCCN=C(N)N)NC(=O)[C@H](CCCN=C(N)N)NC(=O)[C@@H]1CCCN1C(=O)[C@@H]1CCCN1C(=O)[C@H](CCCN=C(N)N)NC(=O)[C@@H]1CCCN1C(=O)[C@H](CCCN=C(N)N)NC(=O)[C@@H]1CCCN1C(=O)[C@H](CCCN=C(N)N)NC(=O)[C@H](Cc1ccc(O)cc1)NC(=O)[C@H](Cc1cnc[nH]1)NC(=O)[C@H](CCCN=C(N)N)NC(=O)[C@H](CCCCN)NC(=O)[C@H](CC(=O)O)NC(=O)[C@@H](N)C(C)C)C(=O)N[C@@H](Cc1ccc(O)cc1)C(=O)N[C@@H](CC(N)=O)C(=O)N[C@@H](CCCN=C(N)N)C(N)=O` [VDKRHYRPRPRPPRRIYNR] came in with an MIC of 0.316 µM (≈ 0.8 µg/mL).

`CC[C@H](C)[C@H](NC(=O)[C@H](CCCN=C(N)N)NC(=O)[C@H](CCCN=C(N)N)NC(=O)[C@@H]1CCCN1C(=O)[C@@H]1CCCN1C(=O)[C@H](CCCN=C(N)N)NC(=O)[C@H](CCCCN)NC(=O)[C@H](CCCN=C(N)N)NC(=O)[C@@H]1CCCN1C(=O)[C@H](CC(C)C)NC(=O)[C@H](CCCN=C(N)N)NC(=O)[C@@H]1CCCN1C(=O)[C@H](CCCN=C(N)N)NC(=O)[C@H](CCCCN)NC(=O)[C@H](CC(=O)O)NC(=O)[C@@H](N)C(C)C)C(=O)N[C@@H](Cc1ccc(O)cc1)C(=O)N[C@@H](CC(N)=O)C(=O)N[C@@H](CCCN=C(N)N)C(N)=O` [VDKRPRLPRKRPPRRIYNR] gave an MIC in experiment [14] of 0.647 µM (≈ 1.6 µg/mL).

In turn, `CC[C@H](C)[C@H](NC(=O)[C@H](CCCN=C(N)N)NC(=O)[C@H](CCCN=C(N)N)NC(=O)[C@@H]1CCCN1C(=O)[C@@H]1CCCN1C(=O)[C@H](CCCN=C(N)N)NC(=O)[C@@H]1CCCN1C(=O)[C@H](CCCN=C(N)N)NC(=O)[C@@H]1CCCN1C(=O)[C@H](CC(C)C)NC(=O)[C@H](CCCN=C(N)N)NC(=O)[C@@H]1CCCN1C(=O)[C@H](CCCN=C(N)N)NC(=O)[C@H](CCCCN)NC(=O)[C@H](CC(=O)O)NC(=O)[C@@H](N)C(C)C)C(=O)N[C@@H](Cc1ccc(O)cc1)C(=O)N[C@@H](CC(N)=O)C(=O)N[C@@H](CCCN=C(N)N)C(N)=O` [VDKRPRLPRPRPPRRIYNR] had an MIC in experiment [14] of 0.532 µM (≈ 1.3 µg/mL).

For `CC[C@H](C)[C@H](NC(=O)[C@H](CCCCN)NC(=O)CNC(=O)[C@H](CC(C)C)NC(=O)[C@@H](NC(=O)[C@H](CCCCN)NC(=O)[C@H](CCCCN)NC(=O)[C@H](Cc1c[nH]c2ccccc12)NC(=O)[C@H](CC(N)=O)NC(=O)[C@@H](N)C(C)C)[C@@H](C)CC)C(N)=O` [VNWKKILGKI], the MIC in experiment [4] is 4.7 µM (≈ 5.63 µg/mL); in experiment [5], 23.3 µM (≈ 27.9 µg/mL); in experiment [6], 75 µM (≈ 89.8 µg/mL); in experiment [7], over 100 µM.

Turning to `CC[C@H](C)[C@H](NC(=O)[C@H](CCCCN)NC(=O)[C@H](CCCCN)NC(=O)[C@H](Cc1c[nH]c2ccccc12)NC(=O)[C@H](CC(N)=O)NC(=O)[C@@H](N)C(C)C)C(=O)N[C@@H](CC(C)C)C(=O)N[C@@H](CCCCN)C(=O)N[C@@H](CCCCN)C(=O)N[C@H](C(=O)N[C@H](C(=O)N[C@@H](CCCCN)C(=O)N[C@H](C(=O)N[C@H](C(=O)N[C@@H](CCCCN)C(N)=O)C(C)C)C(C)C)[C@@H](C)CC)[C@@H](C)CC` [VNWKKILKKIIKVVK], the MIC in [4] was 0.7 µM (≈ 1.29 µg/mL); in experiment [5], 0.7 µM (≈ 1.29 µg/mL); in [6] it was 26.1 µM (≈ 47.9 µg/mL); in [7] it was 9.6 µM (≈ 17.6 µg/mL).

One may read the MIC as the lowest concentration found to suppress growth. Read a high MIC as a need for much substance.
